The source made the active and inactive calls. No cut-off for these calls is given here.
Columns and labels:
C6 [1] = assay: Induction of apoptosis in rat C6 cells assessed cell death at > 40 uM; type: functional, cell-based
C6 [2] = assay: Effect on metabolic changes in rat C6 cells assessed as increase in choline signal at 10 uM after 48 hrs by NMR analysis; type: functional
C6 [3] = assay: Induction of apoptosis in rat C6 cells assessed as DNA fragmentation at 40 uM after 19 hrs by electrophoresis; type: functional, cell-based
C6 [4] = assay: Induction of apoptosis in rat C6 cells assessed as DNA fragmentation at 80 uM after 19 hrs by electrophoresis; type: functional, cell-based
C6 [5] = assay: Cytotoxicity against rat C6 cells assessed as necrotic cells at 80 uM after 19 hrs; type: functional, cell-based
C6 [6] = assay: Effect on metabolic changes in rat C6 cells assessed as ratio of CoA to creatine at 10 uM after 24 hrs by NMR analysis; type: functional
C6 [7] = assay: Induction of apoptosis in rat C6 cells assessed inhibition of cell division; type: functional, cell-based

CCCCCCCC/C=C\CCCCCCCCO[C@H]1O[C@H](CO)[C@@H](O)[C@H](O)[C@H]1NC(C)=O
Activity (C6 [1]): Active | Activity (C6 [2]): 2.47 | Activity (C6 [3]): Active | Activity (C6 [4]): Active | Activity (C6 [5]): inactive | Ratio (C6 [6]): 0.32 | Activity (C6 [7]): Active

Reference: ChEMBL document CHEMBL1140922, “Detection of metabolite changes in C6 glioma cells cultured with antimitotic oleyl glycoside by 1H MAS NMR” (2009)
